# Reference: patent publication US7332296B2, “Screening assay for enzymes involved in pathophysiology using SELDI-TOF mass spectrometry” (Wright State University, priority 2004, dated 2008)
# Legend:
# renin = biological target: T1, renin (Mus musculus, UniProt P06281); test: SELDI-TOF-MS assay of renin activity in plasma (AGT substrate; sequential renin and ACE1); type: biochemical; conditions: AGT + plasma + captopril (10 μM); FIG. 1F
# T1 construct: Plasma incubated with AGT (1759, m/z) results in peptides with m/z that matched Ang 1 and Ang II; from tissue; host or cells: mouse plasma (crude, 0.5 µl)
# T1 sequence (P06281 72-402): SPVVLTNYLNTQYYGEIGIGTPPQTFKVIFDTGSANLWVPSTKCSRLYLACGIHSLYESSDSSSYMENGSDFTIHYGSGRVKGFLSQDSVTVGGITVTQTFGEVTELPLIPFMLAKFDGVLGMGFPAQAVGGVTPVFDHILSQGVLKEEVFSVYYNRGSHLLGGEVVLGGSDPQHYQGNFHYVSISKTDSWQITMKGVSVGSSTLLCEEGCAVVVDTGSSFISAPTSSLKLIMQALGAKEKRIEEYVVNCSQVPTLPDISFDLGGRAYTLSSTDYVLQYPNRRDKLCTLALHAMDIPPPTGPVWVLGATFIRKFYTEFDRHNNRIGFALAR
# Procedure: For measurement of enzyme activities, substrates (Ang II or AGT) were incubated with plasma or tissue extracts and the peptide products were measured using SELDI-TOF MS. For ACE activity, plasma (0.5-2.5 μl) or tissue extracts (1 μg protein) were incubated in 50 μl MES buffer (50 mM, pH 6.7) containing 2 mM PMSF and varying concentrations of Ang I(0.1-10 μM) at 37° C. One μl of the reaction mixture was spotted onto ProteinChip arrays and analyzed as previously described in Cool, D. R. & Hardiman, A., “C-Terminal sequencing of peptide hormones using carboxypeptidase Y and SELDI-TOF mass spectrometry” Biotechniques 36, 32-34 (2004), incorporated herein by reference. […]. […]
# Plasma ACE1 = biological target: T2, Plasma ACE1 (Mus musculus, UniProt P09470); test: SELDI-TOF-MS assay of ACE activity in plasma (Ang I substrate, Ang II product); type: biochemical; conditions: data not shown
# T2 construct: Plasma ACE1 converted Ang I (Ang 1-10; 1296.5 m/z) to Ang II; from tissue; host or cells: mouse plasma (crude, 0.5 µl)
# T2 sequence (P09470 35-1237 limits assumed): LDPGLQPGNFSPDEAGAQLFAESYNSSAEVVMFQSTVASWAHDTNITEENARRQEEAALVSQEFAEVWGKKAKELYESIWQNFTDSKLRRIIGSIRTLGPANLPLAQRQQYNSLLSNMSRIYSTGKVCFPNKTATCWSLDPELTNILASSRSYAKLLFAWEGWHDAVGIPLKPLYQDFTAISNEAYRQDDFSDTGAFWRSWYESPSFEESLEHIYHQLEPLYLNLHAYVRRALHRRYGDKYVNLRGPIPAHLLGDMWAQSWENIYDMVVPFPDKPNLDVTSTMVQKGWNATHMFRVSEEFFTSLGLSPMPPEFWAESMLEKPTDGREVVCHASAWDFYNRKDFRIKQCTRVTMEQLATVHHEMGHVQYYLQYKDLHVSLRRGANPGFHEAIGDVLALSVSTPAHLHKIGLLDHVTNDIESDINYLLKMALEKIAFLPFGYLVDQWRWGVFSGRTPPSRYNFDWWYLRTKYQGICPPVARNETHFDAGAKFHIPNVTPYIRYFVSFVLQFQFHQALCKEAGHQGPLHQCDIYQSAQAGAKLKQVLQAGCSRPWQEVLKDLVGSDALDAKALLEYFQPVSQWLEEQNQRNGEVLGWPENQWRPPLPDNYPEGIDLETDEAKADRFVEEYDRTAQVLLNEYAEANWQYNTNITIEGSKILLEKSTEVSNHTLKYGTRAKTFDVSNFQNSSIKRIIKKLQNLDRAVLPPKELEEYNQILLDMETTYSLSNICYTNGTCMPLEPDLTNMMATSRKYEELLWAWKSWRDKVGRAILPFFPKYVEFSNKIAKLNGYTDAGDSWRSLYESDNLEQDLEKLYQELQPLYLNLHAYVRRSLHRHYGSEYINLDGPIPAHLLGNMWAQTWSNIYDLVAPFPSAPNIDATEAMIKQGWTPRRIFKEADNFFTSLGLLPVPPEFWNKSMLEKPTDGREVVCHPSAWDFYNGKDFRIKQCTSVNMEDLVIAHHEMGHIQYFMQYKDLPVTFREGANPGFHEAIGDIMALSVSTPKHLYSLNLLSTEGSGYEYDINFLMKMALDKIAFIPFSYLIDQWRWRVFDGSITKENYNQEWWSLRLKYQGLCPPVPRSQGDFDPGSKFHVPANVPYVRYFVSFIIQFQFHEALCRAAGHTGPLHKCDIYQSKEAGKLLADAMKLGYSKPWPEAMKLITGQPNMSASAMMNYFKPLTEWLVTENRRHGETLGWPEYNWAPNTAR
smiles,measurement,setting,value
C[C@H](CS)C(=O)N1CCC[C@H]1C(=O)O [captopril],effect on renin activity,renin,no effect
O=C(O)CN(CCN(CC(=O)O)CC(=O)O)CC(=O)O [EDTA],ACE activity (conversion of Ang I to Ang II),Plasma ACE1; 10 mM EDTA,blocked
"c1cnc2c(c1)ccc1cccnc12 [1, 10 phenanthroline]",ACE activity (conversion of Ang I to Ang II),"Plasma ACE1; 0.44 mM 1, 10 phenanthroline",blocked
